Experimental data reported in US20190183961A1, “GLUTAMINE FOR PRESERVING, IMPROVING OR RESTORING KIDNEY FUNCTION” (Fresenius Kabi Deutschland GmbH, priority 2016, published 2019).
Where two headings read alike, the source gives them in different places. Peptide text beside a SMILES is read from it.

Tested on: 5/6 kidney nephrectomised rat model
Assay type: in vivo
Conditions: for incidence of chronic progressive nephropathy (animals affected/animals examined) / effect on incidence/occurrence of chronic progressive nephropathy (in words): 9 days; for incidence of chronic progressive nephropathy (animals affected/animals examined): 5/6 nephrectomised rats; for effect on incidence/occurrence of chronic progressive nephropathy (in words): continuous i.v. infusion, all doses, versus nephrectomised control; for changes in blood levels of biomarkers for kidney and liver injury / treatment-related clinical signs / tolerability of intravenous infusion: rat, in vivo
Procedure: The effect of L-glutamine (administered in form of L-alanyl-L-glutamine; Dipeptiven™) following daily continuous intravenous infusion was examined in a 5/6 kidney nephrectomised rat model.
L-alanyl-L-glutamine was administered for 9 consecutive days. The effects attributable to L-glutamine (provided in form of alanyl-glutamine; Dipeptiven™) were determined by comparison to an L-alanine infusion.
To prevent protein overdose, the protein content of the animal food was adapted according to the L-alanyl-L-glutamine or L-alanine dose administered intravenously.
The study was conducted according to the following design:
Group 1 and 2 animals (control) received the vehicle (0.9% NaCl).
Groups 5 and 6 received Dipeptiven™ without any dilution, i.e. L-alanyl-L-glutamine in a concentration of 200 mg/ml.
Group 3 and 4 animals received diluted Dipeptiven™, i.e. L-alanyl-L-glutamine in a concentration of 13.33 and 80 mg/ml respectively.
Group 7 and 8 animals received L-alanine in a concentration of 32 and 80 mg/ml respectively.
All animals in groups 1 and 3 to 8 underwent a 5/6 nephrectomy. All animals in group 2 were “sham operated”, meaning the abdomen was opened and closed in the surgery, but the kidneys were not excised and remained in the body.
During the acclimatisation period, a polyurethane catheter was implanted into the posterior vena cava via the left femoral vein. Following implantation, the animals were maintained on continuous infusion with physiological saline prior to the start of treatment.
Morbidity/mortality checks were performed at least twice daily. Clinical observations were performed daily. A full clinical examination was performed daily. Individual body weights were recorded three times a week. Food consumption was measured three times a week for each cage of animals, including one measurement during the acclimatisation period. Clinical laboratory determinations were performed on selected animals on days −1 and on days 1 to 10. Animals were sampled for amino acid determination on days 1, 4, 7 and 10. Animals were fasted before blood sampling performed on day 10.
All animals were killed at the end of the treatment period (day 10) and necropsied. Organ/tissue samples were fixed and preserved at necropsy for all animals. Selected organs/tissues from all animals were examined histopathologically. In addition, selected organs/tissues from all animals were used for amino acid determination.

[1] = 3.0 g/kg/day continuous i.v. infusion, 9% protein in diet
[2] = groups 4 and 8: 3.0 g/kg/day, 9% protein in diet, control 60%

In the case of C[C@H](N)C(=O)O [Ala, L-alanine], the “incidence of chronic progressive nephropathy (animals affected/animals examined)” value (“incidence … (animals affected/animals examined)” below) (1.2 g/kg/day continuous i.v. infusion, 10.8% protein in diet) is reported as 4/5, the “incidence … (animals affected/animals examined)” value [1] is reported as 3/5 and the “effect on incidence/occurrence of chronic progressive nephropathy (in words)” value (“effect on incidence/occurrence” for short) is reported as “did not”. For the same molecule, the “occurrence of chronic progressive nephropathy, percent of animals” value (shortened to “occurrence … percent of animals”) [2] was 60%, the “changes in blood levels of biomarkers for kidney and liver injury” value was “No treatment-related” and the treatment-related clinical signs was “No treatment-related clinical signs”. The “tolerability of intravenous infusion” value was “overall well tolerated”.
With C[C@H](N)C(=O)N[C@@H](CCC(N)=O)C(=O)O [Ala-Gln, L-alanyl-L-glutamine] (H-Ala-Gln-OH) the “incidence … (animals affected/animals examined)” value (0.5 g/kg/day continuous i.v. infusion, 12% protein in diet) was 2/5, the “incidence … (animals affected/animals examined)” value [1] was 0/5 and the “incidence … (animals affected/animals examined)” value (7.5 g/kg/day continuous i.v. infusion, 4.5% protein in diet) was 0/5. The “incidence … (animals affected/animals examined)” value (7.5 g/kg/day continuous i.v. infusion, 12% protein in diet (amino acid overload)) was 1/5, the “incidence … (animals affected/animals examined)” value (7.5 g/kg/day continuous i.v. infusion, 12% protein in diet (amino acid overload), listed as L-alanyl-L-glutamine) was 2/5 and the “effect on incidence/occurrence” value was “decreased incidence of chronic progressive nephropathy”. The “occurrence … percent of animals” value (group 3: 0.5 g/kg/day, 12% protein in diet, control 60%) was 40%, the “occurrence … percent of animals” value (group 5: 7.5 g/kg/day, 4.5% protein in diet, control 60%) was 0% and the “occurrence … percent of animals” value [2] was 0%. The “changes in blood levels of biomarkers for kidney and liver injury” value was “No treatment-related”, the treatment-related clinical signs was “No treatment-related clinical signs” and the “tolerability of intravenous infusion” value was “overall well tolerated”.
For NC(=O)CC[C@H](N)C(=O)O [L-glutamine], the “effect on incidence/occurrence” value was “reduces the occurrence of chronic progressive nephropathy in a dose-dependent manner” and the “occurrence … percent of animals” value (group 6: 7.5 g/kg/day, 12% protein in diet (amino acid overload)) was 20%.
